# Literature values, collected in patent publication US20200016283A1, “COMBINATION THERAPY COMPRISING A RADIOPHARMACEUTICAL AND A DNA-REPAIR INHIBITOR” (Bayer AS, priority 2017, published 2020).
# Settings: complexed at ambient temperature in aqueous solutions
structure (smiles),measurement,value
Cn1ccc(C(=O)NCCN(CCNC(=O)c2ccn(C)c(=O)c2O)CC(Cc2ccc(CC(=O)CCC(=O)O)cc2)CN(CCNC(=O)c2ccn(C)c(=O)c2O)CCNC(=O)c2ccn(C)c(=O)c2O)c(O)c1=O [IV′],Stability of the Th-227 complex,highly stable
